Here are results for seven compounds from US9566281B2 (Westfaelische Wilhelms-Universitaet, priority 2012, dated 2017).

A word on the EC50: it is the concentration that produces a half-maximal response.

The test system of one data set is influenza A virus. Briefly: Synergism of MEK inhibitor with Oseltamivir-carboxylate on A549 cells (combination index, CompuSyn). Type of data set: cell-based.
The subject of the next data set is A/Anhui/1/2013 (H7N9). Briefly: microbe, parasite or virus in culture. Type of data set: cell-based, influenza A virus.
The next data set has as its system colon carcinoma. The settings on record: oral administration, mouse model; cited from earlier work.
For data set [1], the system named is A/Mallard/Bavaria/01/2006 (MB1, H5N1). Type of data set: cell-based, influenza A virus. The note with it: MDCK II, MOI 0.001, 24 h treatment, FIG. 6/7.
In another data set the test system is panH1N1 (RB1). The format is cell-based, influenza A virus.
The subject of the next data set is FPV. Type of data set: cell-based.
For data set [2] the following is noted: patients taking oseltamivir; cited from earlier work.
[3] abbreviates: with Oseltamivir-carboxylate, ratio 1:1, A549.
[4] abbreviates: with Oseltamivir-carboxylate, ratio 1:10, A549.

“And” between values parts separate entries of the source, which are not always exact repeats. Equal entries are not always repeated. Where two headings read alike, the source gives them in different places.

Turning to `CCCS(=O)(=O)Nc1ccc(F)c(C(=O)c2c[nH]c3ncc(-c4ccc(Cl)cc4)cc23)c1F` [PLX-4032], in the data set with influenza A virus (setting [3]), the “CI value at ED75” value turned out to be 0.3472, the “CI value at ED90” value turned out to be 0.4332 and the “CI value at ED95” value worked out at 0.5036. In the data set on influenza A virus (setting [4]), the “CI value at ED75” value came to 0.2305, the “CI value at ED90” value stood at 0.2367 and the “CI value at ED95” value is 0.2413. Moreover, the antiviral potency result in the data set with A/Anhui/1/2013 (H7N9) (A549, H7N9, FIGS. 13A and B) was “highly potent”. The compound also yielded an EC50 with A/Anhui/1/2013 (H7N9) (Influenza A virus, H7N9, A549, 24 h) of 12 µM.

As for `Cn1cnc2c(F)c(Nc3ccc(Br)cc3Cl)c(C(=O)NOCCO)cc21` [AZD-6244], in the data set on influenza A virus, the “CI value at ED75” value is 0.2086 and 0.1616; the “CI value at ED90” value was 0.2962 and 0.2330; the “CI value at ED95” value was 0.3760 and 0.2993.

Take `O=C(NOCC1CC1)c1ccc(F)c(F)c1Nc1ccc(I)cc1Cl` [PD184352, 2-(2-chloro-4-iodo-phenylamino)-N-cyclopropylmethoxy-3,4-difluoro-benzamide]: the “growth of colon carcinoma” value in the data set with colon carcinoma is listed as “efficiently inhibit”.

In the case of `O=C(NOCC1CC1)c1ccc(F)c(F)c1Nc1ccc(I)cc1Cl` [CI-1040], in the data set with influenza A virus (setting [3]), the “CI value at ED75” value was 0.4010, the “CI value at ED90” value is recorded as 0.3987 and the “CI value at ED95” value turned out to be 0.4412. For the same compound, in data set [1], the “antiviral potency in cell culture” value is recorded as “highly potent”. For the same compound, in the data set with panH1N1 (RB1), the antiviral potency result was “potent”. In addition, the antiviral potency entry in the data set on FPV is reported as “potent”.

On to `O=C(NOC[C@H](O)CO)c1ccc(F)c(F)c1Nc1ccc(I)cc1F` [PD-0325901], for which the “antiviral potency in cell culture” value in data set [1] is “highly potent”. The antiviral potency result in the data set on panH1N1 (RB1) and in the data set with FPV was “potent” throughout.

Turning to `CC(=O)Nc1cccc(-n2c(=O)n(C3CC3)c(=O)c3c(Nc4ccc(I)cc4F)n(C)c(=O)c(C)c32)c1` [GSK-1120212], in the data set on influenza A virus, the “CI value at ED75” value is on record as 0.4758, the “CI value at ED90” value is on record as 0.4648 and the “CI value at ED95” value is 0.4576.

Turning to oseltamivir, the “patients experiencing nausea and vomiting” value in data set [2] was 10-15%.
